According to patent US9434719B2, “3-pyrimidin-4-yl-oxazolidin-2-ones as inhibitors of mutant IDH” (NOVARTIS AG, priority 2013, dated 2016):
Where a name gives a salt, the structure may show the parent alone.

Experiments:
Format in all cases: in vitro ADME
[1] = Metabolic stability in liver microsomes, Method II, human; settings: 1 μM test compound, NADPH + UDPGA
Procedure: (§1) Determination of Metabolic Stability in Liver Microsomes—Method II
(§2) The in vitro metabolic stability assay was performed in a 96-deep-well plate with incubation at 37° C. 10 mM DMSO stock solution of the test compound was diluted 1:20 in acetonitrile, followed by an additional 1:10 dilution in 100 mM potassium phosphate buffer (KPi) to yield a final reaction concentration of 1 μM. Immediately prior to the start of the experiment, respective animal or human liver microsomes (male Sprague-dawley rat, male CD-1 mouse, or pooled human liver microsomes) were diluted in 100 mM KPi to 1.25 mg/mL liver microsomal protein. 290 μL of cofactor solution (1.7 mM NADPH, 1.7 mM UDPGA, 3.4 mM MgCl in 100 mM KPi) was added to 200 μL of microsomal protein for a final volume of 490 μL. The reaction was initiated by adding 10 μL of the 50 μM test solution to 490 μL of microsomal protein for a final volume 500 μL enzyme-compound mixture.
(§3) At 0, 5, 15 and 30 minute time points in the reaction, reaction aliquots (75 μL) were removed and the reactions were terminated by the addition of 50:50 acetonitrile/methanol solution (75 μL) containing a mass spectrometry internal standard (0.5 μM glyburide). The samples were centrifuged at 4000 RPM for 10 minutes. Supernatants (15 μL aliquots) were transferred to a new plate where each well contains 90 μL of deionized water. The supernatants solution were analyzed by UPLC/MS/MS for quantitation of parent remaining compound under multiple reactions monitoring mode (MRM) in positive mode. The percentage of compound remaining, relative to 0 minutes, was used to estimate in vitro elimination-rate constant (k) which was used to calculate in vitro metabolic clearance rates.
(§4) Analysis of the samples was performed on an ultra-performance liquid chromatography-tandem mass spectrometry (UPLC/MS/MS) system consisting of an AB Sciex Qtrap 5500 mass spectrometer, AB Sciex Turbo V ion source, Waters Acquity Sample Organizer, Waters Acquity Column manager, Waters Acquity Sample manager, and a Waters Acquity Binary Solvent Manager. Chromatographic separation of analyte and internal standard was achieved using a reverse phase C-18 column (50×2.1 mm, 1.7 μm, Acquity UPLC BEH C-18) with the following UPLC mobile phases and elution gradient: […]
(§5) UPLC mobile phase A: 0.25% formic acid in 5% methanol; mobile phase B: 0.25% formic acid in […].
(§6) The injection volume was 5 μL. Compounds were detected using Analyst 1.5.1 software which collects intensity data for all fragments related to the molecular weight of the test compound. After collection of the raw data, the software identifies and integrates the peak of the strongest intensity.
(§7) Each microsomal elimination rate, k, was based on a 4-point elimination curve tested in duplicates. LC-MS/MS raw data for a reaction plate was returned as integrated analyte peak areas for the test compound and internal standard used in the quench solution for the reaction to enable use of analyte:internal standard peak area ratios (PARs) for all data comparisons. The reaction time point (e.g. 0, 5, 15 and 30 minutes) was plotted versus the natural logarithm of percent test compound remaining relative to 0 minutes (based on relative PAR). The slope of this clearance plot, k, was used to calculate the in vitro half-life.
(§8) [formula] The intrinsic clearance value, CLint (expressed as μL/min/mg microsomal protein) calculation is shown below:
(§9) [formula] Where V=the incubation volume (mL) and M=the microsomal protein content in the incubation (mg)

[2] = Metabolic stability in liver microsomes, Method II, mouse; settings: NADPH + UDPGA; for microsomal CLint: 1 μM test compound
Procedure: as §1, §2, §3, §4, §5, §6, §7, §8, §9

[3] = Metabolic stability in liver microsomes, Method II, rat; settings: 1 μM test compound, NADPH + UDPGA
Procedure: The in vitro metabolic stability assay was performed in a 96-deep-well plate with incubation at 37° C. 10 mM DMSO stock solution of the test compound was diluted 1:20 in acetonitrile, followed by an additional 1:10 dilution in 100 mM potassium phosphate buffer (KPi) to yield a final reaction concentration of 1 μM. […] 290 μL of cofactor solution (1.7 mM NADPH, 1.7 mM UDPGA, 3.4 mM MgCl in 100 mM KPi) was added to 200 μL of microsomal protein for a final volume of 490 μL. The reaction was initiated by adding 10 μL of the 50 μM test solution to 490 μL of microsomal protein for a final volume 500 μL enzyme-compound mixture.
UPLC mobile phase A: 0.25% formic acid in 5% methanol; mobile phase B: 0.25% formic acid in 95% water.

Row | Structure (SMILES) | microsomal CLint [1] [µL/min/mg] | microsomal CLint [2] [µL/min/mg] | microsomal CLint [3] [µL/min/mg] | microsomal CLint at 1 μM ([1]; pooled liver microsomes) [µL/min/mg] | microsomal CLint at 1 μM ([2]; male, CD-1, 1 μM test compound) [µL/min/mg] | microsomal CLint at 1 μM ([3]; male, Sprague-Dawley) [µL/min/mg]
1 | C[C@H](Nc1nccc(N2C(=O)OC[C@@H]2[C@H](C)F)n1)c1cn(-c2ccc(F)cc2F)cn1 [478 as TFA salt] | 10.9 | 55.3 | 219 | – | – | –
2 | C[C@H](Nc1ncc(F)c(N2C(=O)OC[C@@H]2CF)n1)c1cn(-c2ccc(F)c(Cl)c2)cn1 [472 as TFA salt] | < 7.7 | 45.6 | 12 | – | – | –
3 | C[C@H](Nc1nccc(N2C(=O)OC[C@@H]2CF)n1)c1cn(-c2ccc(F)cc2)cn1 [471 as TFA salt] | < 7.7 | 14.8 | < 7.7 | – | – | –
4 | C[C@H](Nc1ncc(F)c(N2C(=O)OC[C@@H]2[C@H](C)F)n1)c1cn(-c2ccc(Cl)cc2F)cn1 [Example 477, (R)-3-(2-(((S)-1-(1-(4-chloro-2-fluorophenyl)-1H-imidazol-4-yl)ethyl)amino)-5-fluoropyrimidin-4-yl)-4-((S)-1-fluoroethyl)oxazolidin-2-one] | – | – | – | 30.4 | 167 | 438
5 | C[C@H](Nc1nccc(N2C(=O)OC[C@@H]2[C@H](C)F)n1)c1cn(-c2ccc(Cl)cc2F)cn1 [476 as TFA salt] | 41.4 | 111 | 344 | – | – | –
